Assay results: patent US20090326037A1 (priority 2005, published 2009)
Structures can show the parent of a compound that is named as a salt.

System: influenza A/Singapore/1/57 virus
Assay: microbe, parasite or virus in culture
Format: cell-based

CCOC(=O)c1c(CSc2ccccc2)n(C)c2cc(Br)c(O)c(CN(C)C)c12 [Arbidol, 1-methyl-2-phenylthiomethyl-3-carbethoxy-4-dimethylaminomethyl-5-oxy-6-bromindol hydrochloride]
suppression of virus reproduction (1 μg of arbidol with 10-12 mg of zanamivir or oseltamivir): 100%
Percent of inhibition of OD 490 (A or B 0.3 μg/ml + Zanamivir 0.3 μg, added 2 hours after infection): 20%
Percent of inhibition of OD 490 (A or B 0.3 μg/ml + Zanamivir 1 μg, added 2 hours after infection): 30%
Percent of inhibition of OD 490 (A or B 0.3 μg/ml + Zanamivir 3.3 μg, added 2 hours after infection): 37%
Percent of inhibition of OD 490 (A or B 0.3 μg/ml + Zanamivir 10 μg, added 2 hours after infection): 48%
Percent of inhibition of OD 490 (A or B 0.3 μg/ml + Zanamivir 33 μg, added 2 hours after infection): 60%
Percent of inhibition of OD 490 (A or B 1 μg/ml + Zanamivir 0.3 μg, added 2 hours after infection): 33%
Percent of inhibition of OD 490 (A or B 1 μg/ml + Zanamivir 3.3 μg, added 2 hours after infection): 46%
Percent of inhibition of OD 490 (A or B 1 μg/ml + Zanamivir 10 μg, added 2 hours after infection): 100%
Percent of inhibition of OD 490 (A or B 1 μg/ml + Zanamivir 33 μg, added 2 hours after infection): 100%
Percent of inhibition of OD 490 (A or B 3 μg/ml + Zanamivir 0.3 μg, added 2 hours after infection): 60%
Percent of inhibition of OD 490 (A or B 3 μg/ml + Zanamivir 1 μg, added 2 hours after infection): 58%
Percent of inhibition of OD 490 (A or B 3 μg/ml + Zanamivir 3.3 μg, added 2 hours after infection): 93%
Percent of inhibition of OD 490 (A or B 3 μg/ml + Zanamivir 10 μg, added 2 hours after infection): 100%
Percent of inhibition of OD 490 (A or B 3 μg/ml + Zanamivir 33 μg, added 2 hours after infection): 100%
Percent of inhibition of OD 490 (A or B 5 μg/ml + Zanamivir 0.3 μg, added 2 hours after infection): 69%
Percent of inhibition of OD 490 (A or B 5 μg/ml + Zanamivir 1 μg, added 2 hours after infection): 85%
Percent of inhibition of OD 490 (A or B 5 μg/ml + Zanamivir 3.3 μg, added 2 hours after infection): 88%
Percent of inhibition of OD 490 (A or B 5 μg/ml + Zanamivir 10 μg, added 2 hours after infection): 100%
Percent of inhibition of OD 490 (A or B 5 μg/ml + Zanamivir 33 μg, added 2 hours after infection): 100%
Percent of inhibition of OD 490 (A or B 10 μg/ml + Zanamivir 0.3 μg, added 2 hours after infection): 71%
Percent of inhibition of OD 490 (A or B 10 μg/ml + Zanamivir 1 μg, added 2 hours after infection): 85%
Percent of inhibition of OD 490 (A or B 10 μg/ml + Zanamivir 3.3 μg, added 2 hours after infection): 98%
Percent of inhibition of OD 490 (A or B 10 μg/ml + Zanamivir 10 μg, added 2 hours after infection): 100, 100%
Percent of inhibition of OD 490 (A or B 10 μg/ml + Zanamivir 33 μg, added 2 hours after infection): 100, 100%
Percent of inhibition of OD 490 (A or B 10 μg/ml alone (Zanamivir 0), added 2 hours after infection): 22%
Percent of inhibition of OD 490 (A or C 0.3 μg/ml + Oseltamivir 0.4 μg, added 2 hours after infection): 35%
Percent of inhibition of OD 490 (A or C 0.3 μg/ml + Oseltamivir 4.1 μg, added 2 hours after infection): 37%
Percent of inhibition of OD 490 (A or C 0.3 μg/ml + Oseltamivir 12.3 μg, added 2 hours after infection): 47%
Percent of inhibition of OD 490 (A or C 1 μg/ml + Oseltamivir 0.4 μg, added 2 hours after infection): 48%
Percent of inhibition of OD 490 (A or C 1 μg/ml + Oseltamivir 1.2 μg, added 2 hours after infection): 59%
Percent of inhibition of OD 490 (A or C 1 μg/ml + Oseltamivir 4.1 μg, added 2 hours after infection): 56%
Percent of inhibition of OD 490 (A or C 1 μg/ml + Oseltamivir 12.3 μg, added 2 hours after infection): 100%
Percent of inhibition of OD 490 (A or C 1 μg/ml + Oseltamivir 41 μg, added 2 hours after infection): 100%
Percent of inhibition of OD 490 (A or C 3 μg/ml + Oseltamivir 0.4 μg, added 2 hours after infection): 62%
Percent of inhibition of OD 490 (A or C 3 μg/ml + Oseltamivir 1.2 μg, added 2 hours after infection): 58%
Percent of inhibition of OD 490 (A or C 3 μg/ml + Oseltamivir 4.1 μg, added 2 hours after infection): 90%
Percent of inhibition of OD 490 (A or C 3 μg/ml + Oseltamivir 12.3 μg, added 2 hours after infection): 100%
Percent of inhibition of OD 490 (A or C 3 μg/ml + Oseltamivir 41 μg, added 2 hours after infection): 100, 100%
Percent of inhibition of OD 490 (A or C 5 μg/ml + Oseltamivir 0.4 μg, added 2 hours after infection): 79%
Percent of inhibition of OD 490 (A or C 5 μg/ml + Oseltamivir 1.2 μg, added 2 hours after infection): 84%
Percent of inhibition of OD 490 (A or C 5 μg/ml + Oseltamivir 4.1 μg, added 2 hours after infection): 100%
Percent of inhibition of OD 490 (A or C 5 μg/ml + Oseltamivir 12.3 μg, added 2 hours after infection): 98%
Percent of inhibition of OD 490 (A or C 5 μg/ml + Oseltamivir 41 μg, added 2 hours after infection): 100, 100%
Percent of inhibition of OD 490 (A or C 10 μg/ml + Oseltamivir 0.4 μg, added 2 hours after infection): 70%
Percent of inhibition of OD 490 (A or C 10 μg/ml + Oseltamivir 1.2 μg, added 2 hours after infection): 85%
Percent of inhibition of OD 490 (A or C 10 μg/ml + Oseltamivir 4.1 μg, added 2 hours after infection): 100%
Percent of inhibition of OD 490 (A or C 10 μg/ml + Oseltamivir 12.3 μg, added 2 hours after infection): 100%
Percent of inhibition of OD 490 (A or C 10 μg/ml + Oseltamivir 41 μg, added 2 hours after infection): 100%
Percent of inhibition of OD 490 (A or C 10 μg/ml alone (Oseltamivir 0), added 2 hours after infection): 20%
Percent of inhibition of OD 490 (A or D 1 μg/ml + Amantadin 0.3 μg/ml, added 30 min prior to infection): 30%
Percent of inhibition of OD 490 (A or D 1 μg/ml + Amantadin 1 μg/ml, added 30 min prior to infection): 30%
Percent of inhibition of OD 490 (A or D 1 μg/ml + Amantadin 5 μg/ml, added 30 min prior to infection): 52%
Percent of inhibition of OD 490 (A or D 1 μg/ml + Amantadin 10 μg/ml, added 30 min prior to infection): 59%
Percent of inhibition of OD 490 (A or D 1 μg/ml + Remantadin 0.3 μg/ml, added 30 min prior to infection): 31%
Percent of inhibition of OD 490 (A or D 1 μg/ml + Remantadin 1 μg/ml, added 30 min prior to infection): 33%
Percent of inhibition of OD 490 (A or D 1 μg/ml + Remantadin 5 μg/ml, added 30 min prior to infection): 50%
Percent of inhibition of OD 490 (A or D 1 μg/ml + Remantadin 10 μg/ml, added 30 min prior to infection): 59%
Percent of inhibition of OD 490 (A or D 1 μg/ml alone (Amantadin 0), added 30 min prior to infection): 30%
Percent of inhibition of OD 490 (A or D 1 μg/ml alone (Remantadin 0), added 30 min prior to infection): 30%
